Reference: the NIST ThermoML archive (doi:10.1016/j.jct.2018.12.031)

Experiment: xn = mol fraction of the nth substance listed
Details: 100 kPa, Liquid; for speed of sound: Frequency=3 MHz, Linear variable-path acoustic interferometer; for mass density: Pycnometric method

C=C(C)C(=O)OCCCC [butyl 2-methyl-2-propenoate] + N#Cc1ccccc1
Details | mass density [kg/m3] | speed of sound [m/s]
293.15 K, x2 = 0 | 895.19 | 1241.7
293.15 K, x2 = 0.0721 | 900.73 | 1251.2
293.15 K, x2 = 0.1507 | 907.02 | 1262
293.15 K, x2 = 0.2142 | 912.32 | 1271.2
293.15 K, x2 = 0.2876 | 918.72 | 1282.1
293.15 K, x2 = 0.3511 | 924.51 | 1291.9
293.15 K, x2 = 0.4297 | 932.05 | 1304.6
293.15 K, x2 = 0.4985 | 939.01 | 1316.5
293.15 K, x2 = 0.5715 | 946.81 | 1330
293.15 K, x2 = 0.6465 | 955.32 | 1344.9
293.15 K, x2 = 0.7147 | 963.54 | 1359.7
293.15 K, x2 = 0.7784 | 971.67 | 1374.6
293.15 K, x2 = 0.8558 | 982.2 | 1394.4
293.15 K, x2 = 0.9326 | 993.43 | 1416.2
298.15 K, x2 = 0 | 890.48 | 1222.1
298.15 K, x2 = 0.0721 | 896.08 | 1231.8
298.15 K, x2 = 0.1507 | 902.44 | 1242.8
298.15 K, x2 = 0.2142 | 907.79 | 1252
298.15 K, x2 = 0.2876 | 914.25 | 1262.8
298.15 K, x2 = 0.3511 | 920.1 | 1272.6
298.15 K, x2 = 0.4297 | 927.7 | 1285.3
298.15 K, x2 = 0.4985 | 934.73 | 1297.1
298.15 K, x2 = 0.5715 | 942.6 | 1310.6
298.15 K, x2 = 0.6465 | 951.19 | 1325.7
298.15 K, x2 = 0.7147 | 959.49 | 1340.5
298.15 K, x2 = 0.7784 | 967.7 | 1355.6
298.15 K, x2 = 0.8558 | 978.33 | 1375.6
298.15 K, x2 = 0.9326 | 989.66 | 1397.6
303.15 K, x2 = 0 | 885.78 | 1202.4
303.15 K, x2 = 0.0721 | 891.44 | 1212.4
303.15 K, x2 = 0.1507 | 897.86 | 1223.6
303.15 K, x2 = 0.2142 | 903.26 | 1232.8
303.15 K, x2 = 0.2876 | 909.78 | 1243.7
303.15 K, x2 = 0.3511 | 915.69 | 1253.4
303.15 K, x2 = 0.4297 | 923.35 | 1266.3
303.15 K, x2 = 0.4985 | 930.45 | 1278.1
303.15 K, x2 = 0.5715 | 938.39 | 1291.6
303.15 K, x2 = 0.6465 | 947.06 | 1306.8
303.15 K, x2 = 0.7147 | 955.44 | 1321.9
303.15 K, x2 = 0.7784 | 963.73 | 1337.2
303.15 K, x2 = 0.8558 | 974.46 | 1357.7
303.15 K, x2 = 0.9326 | 985.89 | 1379.9
308.15 K, x2 = 0 | 881.07 | 1183
308.15 K, x2 = 0.0721 | 886.79 | 1193.2
308.15 K, x2 = 0.1507 | 893.27 | 1204.6
308.15 K, x2 = 0.2142 | 898.72 | 1213.9
308.15 K, x2 = 0.2876 | 905.3 | 1225
308.15 K, x2 = 0.3511 | 911.26 | 1234.8
308.15 K, x2 = 0.4297 | 919 | 1247.7
308.15 K, x2 = 0.4985 | 926.16 | 1259.6
308.15 K, x2 = 0.5715 | 934.18 | 1273.2
308.15 K, x2 = 0.6465 | 942.93 | 1288.5
308.15 K, x2 = 0.7147 | 951.39 | 1303.8
308.15 K, x2 = 0.7784 | 959.75 | 1319.5
308.15 K, x2 = 0.8558 | 970.58 | 1340.4
308.15 K, x2 = 0.9326 | 982.12 | 1362.9
313.15 K, x2 = 0 | 876.35 | 1163.8
313.15 K, x2 = 0.0721 | 882.13 | 1174.3
313.15 K, x2 = 0.1507 | 888.68 | 1185.8
313.15 K, x2 = 0.2142 | 894.18 | 1195.3
313.15 K, x2 = 0.2876 | 900.82 | 1206.5
313.15 K, x2 = 0.3511 | 906.83 | 1216.5
313.15 K, x2 = 0.4297 | 914.65 | 1229.5
313.15 K, x2 = 0.4985 | 921.87 | 1241.5
313.15 K, x2 = 0.5715 | 929.96 | 1255.2
313.15 K, x2 = 0.6465 | 938.79 | 1270.7
313.15 K, x2 = 0.7147 | 947.33 | 1286.3
313.15 K, x2 = 0.7784 | 955.77 | 1302.3
313.15 K, x2 = 0.8558 | 966.7 | 1323.7
313.15 K, x2 = 0.9326 | 978.35 | 1346.9
318.15 K, x2 = 0 | 871.64 | 1145.7
318.15 K, x2 = 0.0721 | 877.48 | 1156.5
318.15 K, x2 = 0.1507 | 884.09 | 1168.2
318.15 K, x2 = 0.2142 | 889.64 | 1177.8
318.15 K, x2 = 0.2876 | 896.34 | 1189.1
318.15 K, x2 = 0.3511 | 902.4 | 1199.1
318.15 K, x2 = 0.4297 | 910.29 | 1212.1
318.15 K, x2 = 0.4985 | 917.58 | 1224.2
318.15 K, x2 = 0.5715 | 925.74 | 1238
318.15 K, x2 = 0.6465 | 934.65 | 1253.7
318.15 K, x2 = 0.7147 | 943.27 | 1269.6
318.15 K, x2 = 0.7784 | 951.79 | 1285.9
318.15 K, x2 = 0.8558 | 962.82 | 1307.8
318.15 K, x2 = 0.9326 | 974.58 | 1331.5

N#Cc1ccccc1 [benzonitrile] + C=C(C)C(=O)OC
Details | mass density [kg/m3] | speed of sound [m/s]
293.15 K, x1 = 0.0652 | 948.11 | 1220.4
293.15 K, x1 = 0.1303 | 952.71 | 1239.9
293.15 K, x1 = 0.1922 | 956.98 | 1258.1
293.15 K, x1 = 0.271 | 962.27 | 1279.6
293.15 K, x1 = 0.3371 | 966.59 | 1296.9
293.15 K, x1 = 0.4174 | 971.69 | 1316.8
293.15 K, x1 = 0.4872 | 976 | 1333.2
293.15 K, x1 = 0.5689 | 980.9 | 1351.4
293.15 K, x1 = 0.6398 | 985.02 | 1366.6
293.15 K, x1 = 0.7089 | 988.92 | 1381.1
293.15 K, x1 = 0.7767 | 992.63 | 1394.4
293.15 K, x1 = 0.8571 | 996.88 | 1410
293.15 K, x1 = 0.9252 | 1000.34 | 1422.4
293.15 K, x1 = 1 | 1003.99 | 1436.9
298.15 K, x1 = 0.0652 | 942.55 | 1203.9
298.15 K, x1 = 0.1303 | 947.32 | 1223.6
298.15 K, x1 = 0.1922 | 951.75 | 1241.7
298.15 K, x1 = 0.271 | 957.23 | 1263.3
298.15 K, x1 = 0.3371 | 961.71 | 1280.2
298.15 K, x1 = 0.4174 | 966.99 | 1299.9
298.15 K, x1 = 0.4872 | 971.45 | 1316.2
298.15 K, x1 = 0.5689 | 976.51 | 1334.3
298.15 K, x1 = 0.6398 | 980.77 | 1349.3
298.15 K, x1 = 0.7089 | 984.8 | 1363.6
298.15 K, x1 = 0.7767 | 988.63 | 1376.7
298.15 K, x1 = 0.8571 | 993.01 | 1392.3
298.15 K, x1 = 0.9252 | 996.57 | 1404.6
298.15 K, x1 = 1 | 1000.32 | 1418.2
303.15 K, x1 = 0.0652 | 936.99 | 1189.3
303.15 K, x1 = 0.1303 | 941.93 | 1209
303.15 K, x1 = 0.1922 | 946.52 | 1227
303.15 K, x1 = 0.271 | 952.19 | 1248.3
303.15 K, x1 = 0.3371 | 956.83 | 1265.4
303.15 K, x1 = 0.4174 | 962.29 | 1284.8
303.15 K, x1 = 0.4872 | 966.9 | 1300.8
303.15 K, x1 = 0.5689 | 972.12 | 1319
303.15 K, x1 = 0.6398 | 976.52 | 1333.8
303.15 K, x1 = 0.7089 | 980.68 | 1348
303.15 K, x1 = 0.7767 | 984.63 | 1360.9
303.15 K, x1 = 0.8571 | 989.14 | 1376
303.15 K, x1 = 0.9252 | 992.8 | 1388.2
303.15 K, x1 = 1 | 996.65 | 1400.7
308.15 K, x1 = 0.0652 | 931.43 | 1173.8
308.15 K, x1 = 0.1303 | 936.55 | 1193.9
308.15 K, x1 = 0.1922 | 941.29 | 1211.7
308.15 K, x1 = 0.271 | 947.15 | 1232.7
308.15 K, x1 = 0.3371 | 951.93 | 1249.6
308.15 K, x1 = 0.4174 | 957.57 | 1268.8
308.15 K, x1 = 0.4872 | 962.33 | 1284.7
308.15 K, x1 = 0.5689 | 967.73 | 1302.9
308.15 K, x1 = 0.6398 | 972.27 | 1317.9
308.15 K, x1 = 0.7089 | 976.56 | 1332
308.15 K, x1 = 0.7767 | 980.63 | 1345.5
308.15 K, x1 = 0.8571 | 985.27 | 1360.6
308.15 K, x1 = 0.9252 | 989.03 | 1372
308.15 K, x1 = 1 | 992.98 | 1384
313.15 K, x1 = 0.0652 | 925.87 | 1157
313.15 K, x1 = 0.1303 | 931.16 | 1177.3
313.15 K, x1 = 0.1922 | 936.06 | 1195.3
313.15 K, x1 = 0.271 | 942.12 | 1216.5
313.15 K, x1 = 0.3371 | 947.05 | 1233.2
313.15 K, x1 = 0.4174 | 952.87 | 1252.4
313.15 K, x1 = 0.4872 | 957.78 | 1268.5
313.15 K, x1 = 0.5689 | 963.35 | 1286.5
313.15 K, x1 = 0.6398 | 968.02 | 1302.2
313.15 K, x1 = 0.7089 | 972.44 | 1316.5
313.15 K, x1 = 0.7767 | 976.63 | 1330.5
313.15 K, x1 = 0.8571 | 981.4 | 1345.5
313.15 K, x1 = 0.9252 | 985.26 | 1357.2
313.15 K, x1 = 1 | 989.31 | 1368.2
318.15 K, x1 = 0.0652 | 920.31 | 1140.3
318.15 K, x1 = 0.1303 | 925.77 | 1160.8
318.15 K, x1 = 0.1922 | 930.83 | 1179
318.15 K, x1 = 0.271 | 937.08 | 1200
318.15 K, x1 = 0.3371 | 942.18 | 1216.8
318.15 K, x1 = 0.4174 | 948.18 | 1236
318.15 K, x1 = 0.4872 | 953.23 | 1251.9
318.15 K, x1 = 0.5689 | 958.96 | 1270.3
318.15 K, x1 = 0.6398 | 963.77 | 1286
318.15 K, x1 = 0.7089 | 968.31 | 1300.9
318.15 K, x1 = 0.7767 | 972.61 | 1315
318.15 K, x1 = 0.8571 | 977.51 | 1330.8
318.15 K, x1 = 0.9252 | 981.48 | 1342.4
318.15 K, x1 = 1 | 985.64 | 1352.9
